Measured values from patent publication US11053219B2, “Substituted pyridines as TYK2 inhibitors” (FronThera U.S. Pharmaceuticals LLC, priority 2018, dated 2021).
One block for each compound: values may come before it.

Tests used:
TYK2 (JH2 domain) = TYK2 (JH2 domain) (Homo sapiens (Human), UniProt P29597); test: TYK2 JH2 domain binding assay (DiscoverX KINOMEscan); details: 11-point 3-fold dilution, duplicate
[1] = test system: INFα induced pSTAT5 in human PBMC; test: INFα induced pSTAT5 in human PBMC; type: cell-based; details: human PBMC, INFα 5000 units/ml; read-out: p-STAT5 IC50
JAK1 (JH2 domain) = JAK1 (JH2 domain) (Homo sapiens (Human), UniProt P23458); test: JAK1 JH2 domain binding assay (KINOMEscan); details: KINOMEscan; read-out: JAK1 (JH2 domain) binding Kd
Chain of JAK1 (JH2 domain) (P23458 583-855): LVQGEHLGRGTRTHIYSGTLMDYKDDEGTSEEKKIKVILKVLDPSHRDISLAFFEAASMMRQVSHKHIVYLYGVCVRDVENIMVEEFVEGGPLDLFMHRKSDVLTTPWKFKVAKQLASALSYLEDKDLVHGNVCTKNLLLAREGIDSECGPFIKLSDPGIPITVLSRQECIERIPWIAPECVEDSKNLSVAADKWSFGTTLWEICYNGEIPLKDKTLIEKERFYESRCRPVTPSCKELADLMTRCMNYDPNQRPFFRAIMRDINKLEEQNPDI

JAK2 (JH1 domain) = JAK2 (JH1 domain) (Homo sapiens (Human), UniProt O60674); test: JAK2 JH1 domain binding assay (KINOMEscan)
Chain of JAK2 (JH1 domain) (O60674 849-1124): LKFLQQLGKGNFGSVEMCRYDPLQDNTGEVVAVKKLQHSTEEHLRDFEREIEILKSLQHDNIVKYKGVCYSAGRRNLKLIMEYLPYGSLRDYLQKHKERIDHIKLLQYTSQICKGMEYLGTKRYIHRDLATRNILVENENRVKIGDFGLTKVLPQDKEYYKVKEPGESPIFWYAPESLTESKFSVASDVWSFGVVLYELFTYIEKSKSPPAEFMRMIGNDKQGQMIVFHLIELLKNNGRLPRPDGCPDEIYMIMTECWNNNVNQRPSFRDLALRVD

[2] = test system: GM-CSF-induced pSTAT5 in human PBMC; test: GM-CSF-induced pSTAT5 in human PBMC; type: cell-based; details: GM-CSF 10 ng/ml
Description: (§1) Fresh Human PBMCs were resuspended in RPMI 1640 medium with 10% FBS. Cells were seeded in a round bottom 96-well plate at the concentration of 200,000 cells/well. A 10-point dilution series of test compound (top dose 10 uM, 1:5 dilution) was added to the well using the liquid dispenser (Tecan D300e) and incubated for 1 hour at 37 C. Then human IL-12 recombinant protein (R&D Systems) was added to the well at the final concentration of 10 ng/ml and incubated for 15 minutes at 37 C. Cell lysates were prepared and analyzed by Phospho STAT4 (Tyr693) Kit (Meso Scale Discovery) following manufacturer's protocol.
(§2) For calculation of the inhibition rate, the relative pSTAT4 signal of each well=pSTAT4 signal of each well−the average pSTAT4 signal of baseline. The inhibition %=(the average pSTAT4 signal of IL-12 treatment wells−the relative of pSTAT4 signal in each compound containing well)/the average pSTAT4 signal of IL-12 treatment wells*100%
(§3) The curve was plotted as the inhibition % (y-axis) vs. compounds concentration (x-axis) and was fitted with log(inhibitor) vs. normalized response—Variable slope by GraphPad Prism7.0. Control is BMS-986165:
(§4) Similar to the method for IL-12 induced pSTAT4 in human PBMC described above, these assays were performed to check if test compounds have cross-activity to JAK1. JAK2 and JAK3 pathways in human PBMC. The procedure is as described with change of stimuli to 10 ng/ml of GM-CSF or 20 ng/ml of IL-2.

[3] = test system: IL-2-induced pSTAT5 in human PBMC; test: IL-2-induced pSTAT5 in human PBMC; type: cell-based; details: IL-2 20 ng/ml
Description: as §1, §2, §3, §4

[4] = Pharmacokinetic study in Sprague Dawley rats; type: in vivo; details: rat, plasma; for Vd: read-out: Vdss
Description: (§5) The pharmacokinetics of test compounds were evaluated in male C57BL/6 mice, Sprague Dawley rats, Beagle dogs, and cynomolgus monkeys when administered via oral gavage and IV injection. The animals were fasted overnight before administration. Plasma samples were collected predose and at 0.5, 1, 3, 6, 9, 12, and 24 hours postdose. The samples were analyzed by LC/MS/MS and the concentration of test compound at each timepoint was determined by linear regression. Pharmacokinetic parameters were calculated from the plasma concentrations using Pheonix WinNonlin.

[5] = Pharmacokinetic study in Beagle dogs; type: in vivo; details: dog, plasma; for Vd: read-out: Vdss
Description: as §5

[6] = Pharmacokinetic study in cynomolgus monkeys; type: in vivo; details: cynomolgus monkey, plasma; for Vd: read-out: Vdss
Description: as §5

[7] = Pharmacokinetic study in C57BL/6 mice; type: in vivo; parameters: AUC: unit not given here; details: for Tmax / bioavailability / half-life / Cmax / clearance / Vd: male, mouse, plasma; for Vd: read-out: Vdss
Description: as §5

[8] = Oral (5 mg/kg), read-out: C0 or Cmax (Cmax)
[9] = iv, I.V. (1 mg/kg), read-out: C0 or Cmax (C0)
[10] = Oral (2 mg/kg), read-out: C0 or Cmax (Cmax)
[11] = Oral (2 mg/kg), NA: no detectable
[12] = Oral (2 mg/kg), NA: no detectable, read-out: C0 or Cmax (Cmax)
[13] = intravenous, printed on the Oral (2 mg/kg) line (probably belongs to I.V. 1 mg/kg)
[14] = Oral (10 mg/kg), read-out: C0 or Cmax (Cmax)
[15] = iv, I.V. (2 mg/kg), read-out: C0 or Cmax (C0)

Chain of TYK2 (JH2 domain) (P29597 589-875): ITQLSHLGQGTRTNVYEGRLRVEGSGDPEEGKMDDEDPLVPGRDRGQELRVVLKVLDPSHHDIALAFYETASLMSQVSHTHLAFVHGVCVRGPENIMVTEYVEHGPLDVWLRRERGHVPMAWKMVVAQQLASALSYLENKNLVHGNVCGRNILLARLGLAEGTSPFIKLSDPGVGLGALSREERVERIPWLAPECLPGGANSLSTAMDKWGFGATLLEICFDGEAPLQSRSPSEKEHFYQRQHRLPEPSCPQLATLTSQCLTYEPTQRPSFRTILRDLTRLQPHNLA

Kd (TYK2 (JH2 domain)): ≤ 1 nM
Kd (JAK1 (JH2 domain)): < 100 nM
Kd (JAK2 (JH1 domain)): 100 to 1000 nM
AUC ([4]; Oral (5 mg/kg)): 499 ± 502 ng·h/mL
Tmax ([4]; Oral (5 mg/kg)): 0.42 ± 0.14 h
bioavailability ([4]; Oral (5 mg/kg)): 18.7 ± 18.9%
half-life ([4]; Oral (5 mg/kg)): 1.14 ± 0.2 h
Cmax [4, 8]: 185 ± 138 ng/mL
AUC ([4]; iv, I.V. (1 mg/kg)): 533 ± 225 ng·h/mL
clearance ([4]; iv, I.V. (1 mg/kg)): 34.3 ± 12 mL/min/kg
half-life ([4]; iv, I.V. (1 mg/kg)): 0.759 ± 0.6 h
Cmax [4, 9]: 1190 ± 116 ng/mL
Vd ([4]; iv, I.V. (1 mg/kg)): 1.31 ± 0.42 L/kg
AUC ([5]; Oral (2 mg/kg)): 442 ± 81 ng·h/mL
Tmax ([5]; Oral (2 mg/kg)): 2 h
bioavailability ([5]; Oral (2 mg/kg)): 38.5 ± 7.1%
half-life ([5]; Oral (2 mg/kg)): 5.05 ± 0.47 h
Cmax [5, 10]: 103 ± 28 ng/mL
AUC ([5]; iv, I.V. (1 mg/kg)): 575 ± 158 ng·h/mL
clearance ([5]; iv, I.V. (1 mg/kg)): 29.3 ± 8.01 mL/min/kg
half-life ([5]; iv, I.V. (1 mg/kg)): 4.54 ± 1.26 h
Cmax [5, 9]: 458 ± 336 ng/mL
Vd ([5]; iv, I.V. (1 mg/kg)): 7.41 ± 2.64 L/kg
AUC [6, 11]: 67.9 ± 21 ng·h/mL
Tmax [6, 11]: 2.33 ± 1.5 h
bioavailability [6, 11]: 4.67 ± 1.5%
half-life [6, 11]: 3.08 ± 0.66 h
Cmax [6, 12]: 13.9 ± 2 ng/mL
clearance [6, 13]: 23.2 ± 4.3 mL/min/kg
Vd [6, 13]: 1.47 ± 0.1 L/kg
AUC ([6]; iv, I.V. (1 mg/kg)): 726 ± 134 ng·h/mL
half-life ([6]; iv, I.V. (1 mg/kg)): 1.81 ± 0.76 h
Cmax [6, 9]: 849 ± 50 ng/mL
SMILES: [2H]C([2H])([2H])CC(=O)c1cnc(Nc2ccc(C(C)(C)O)c(F)n2)cc1Nc1nccc(-c2ncn(C([2H])([2H])[2H])n2)c1OC [Example 201]
IC50 [1]: < 100 nM
IC50 [2]: 100 to 1000 nM
IC50 [3]: 100 to 1000 nM

SMILES: [2H]C([2H])([2H])CC(=O)c1cnc(NC(=O)C2CC2)cc1Nc1nccc(-c2ncn(C([2H])([2H])[2H])n2)c1OC [Example 200]
Kd (TYK2 (JH2 domain)): ≤ 1 nM
IC50 [1]: < 100 nM
Kd (JAK1 (JH2 domain)): < 100 nM
Kd (JAK2 (JH1 domain)): 1000 to 10000 nM
IC50 [2]: > 10000 nM
IC50 [3]: 1000 to 10000 nM
AUC ([7]; I.V. (2 mg/kg)): 4475
AUC ([7]; Oral (10 mg/kg)): 19295
Tmax ([7]; Oral (10 mg/kg)): 0.25 h
bioavailability ([7]; Oral (10 mg/kg)): 85.1%
half-life ([7]; Oral (10 mg/kg)): 2.01 h
Cmax [7, 14]: 4190 ng/mL
clearance ([7]; iv, I.V. (2 mg/kg)): 7.35 mL/min/kg
half-life ([7]; iv, I.V. (2 mg/kg)): 4.62 h
Cmax [7, 15]: 2390 ng/mL
Vd ([7]; iv, I.V. (2 mg/kg)): 1.5 L/kg
AUC ([4]; Oral (5 mg/kg)): 3660 ± 684 ng·h/mL
Tmax ([4]; Oral (5 mg/kg)): 1 h
bioavailability ([4]; Oral (5 mg/kg)): 42.7 ± 8%
half-life ([4]; Oral (5 mg/kg)): 4.22 ± 3.6 h
Cmax [4, 8]: 948 ± 43 ng/mL
AUC ([4]; iv, I.V. (1 mg/kg)): 1710 ± 19 ng·h/mL
clearance ([4]; iv, I.V. (1 mg/kg)): 9.42 ± 0.022 mL/min/kg
half-life ([4]; iv, I.V. (1 mg/kg)): 1.58 ± 0.21 h
Cmax [4, 9]: 1030 ± 47 ng/mL
Vd ([4]; iv, I.V. (1 mg/kg)): 1.24 ± 0.065 L/kg
AUC ([5]; Oral (2 mg/kg)): 2620 ± 258 ng·h/mL
Tmax ([5]; Oral (2 mg/kg)): 1.33 h
bioavailability ([5]; Oral (2 mg/kg)): 82.9 ± 8.2%
half-life ([5]; Oral (2 mg/kg)): 8.51 ± 1.6 h
Cmax [5, 10]: 247 ± 17 ng/mL
AUC ([5]; iv, I.V. (0.5 mg/kg)): 790 ± 196 ng·h/mL
half-life ([5]; iv, I.V. (0.5 mg/kg)): 11.5 ± 1.6 h
Cmax ([5]; iv, I.V. (0.5 mg/kg), read-out: C0 or Cmax (C0)): 29.7 ± 14 ng/mL
Vd ([5]; iv, I.V. (0.5 mg/kg)): 8.37 ± 1.39 L/kg
AUC [6, 11]: 4060 ± 251 ng·h/mL
Tmax [6, 11]: 2 h
bioavailability [6, 11]: 27.7 ± 1.7%
half-life [6, 11]: 8.6 ± 0.73 h
Cmax [6, 12]: 384 ± 22 ng/mL
AUC ([6]; iv, I.V. (1 mg/kg)): 7320 ± 202 ng·h/mL
clearance ([6]; iv, I.V. (1 mg/kg)): 1.87 ± 0.21 mL/min/kg
half-life ([6]; iv, I.V. (1 mg/kg)): 9.35 ± 1.57 h
Cmax [6, 9]: 677 ± 81 ng/mL
Vd ([6]; iv, I.V. (1 mg/kg)): 1.45 ± 0.18 L/kg

SMILES: [2H]C([2H])([2H])CC(=O)c1cnc(NC(=O)C2CC2)cc1Nc1cccc(-c2ncn(C([2H])([2H])[2H])n2)c1OC [Example 195]
IC50 [1]: < 100 nM
IC50 [2]: 1000 to 10000 nM
IC50 [3]: 1000 to 10000 nM
Tmax ([7]; Oral (10 mg/kg)): 0.5 h
bioavailability ([7]; Oral (10 mg/kg)): 41.7%
half-life ([7]; Oral (10 mg/kg)): 2.11 h
Cmax [7, 14]: 4300 ng/mL
clearance ([7]; iv, I.V. (2 mg/kg)): 4.16 mL/min/kg
half-life ([7]; iv, I.V. (2 mg/kg)): 2.46 h
Cmax [7, 15]: 2950 ng/mL
Vd ([7]; iv, I.V. (2 mg/kg)): 0.688 L/kg
AUC ([4]; Oral (5 mg/kg)): 7440 ± 1400 ng·h/mL
Tmax ([4]; Oral (5 mg/kg)): 1.67 ± 0.58 h
bioavailability ([4]; Oral (5 mg/kg)): 46.7 ± 8.8%
half-life ([4]; Oral (5 mg/kg)): 2.37 ± 0.32 h
Cmax [4, 8]: 1260 ± 226 ng/mL
AUC ([4]; iv, I.V. (1 mg/kg)): 3190 ± 603 ng·h/mL
clearance ([4]; iv, I.V. (1 mg/kg)): 4.96 ± 0.91 mL/min/kg
half-life ([4]; iv, I.V. (1 mg/kg)): 2.14 ± 0.12 h
Cmax [4, 9]: 2150 ± 123 ng/mL
Vd ([4]; iv, I.V. (1 mg/kg)): 0.824 ± 0.11 L/kg
AUC ([5]; Oral (2 mg/kg)): 1520 ± 1330 ng·h/mL
Tmax ([5]; Oral (2 mg/kg)): 1.33 ± 0.58 h
bioavailability ([5]; Oral (2 mg/kg)): 26.2 ± 23%
half-life ([5]; Oral (2 mg/kg)): 5.73 ± 2.02 h
Cmax [5, 10]: 285 ± 285 ng/mL
AUC ([5]; iv, I.V. (1 mg/kg)): 2900 ± 453 ng·h/mL
clearance ([5]; iv, I.V. (1 mg/kg)): 5.31 ± 0.93 mL/min/kg
half-life ([5]; iv, I.V. (1 mg/kg)): 6.69 ± 0.39 h
Cmax [5, 9]: 185 ± 8.4 ng/mL
Vd ([5]; iv, I.V. (1 mg/kg)): 3.04 ± 0.27 L/kg
AUC [6, 11]: 5420 ± 3250 ng·h/mL
Tmax [6, 11]: 4 h
bioavailability [6, 11]: 16.6 ± 9.95%
half-life [6, 11]: 5.8 ± 0.73 h
Cmax [6, 12]: 663 ± 497 ng/mL
AUC ([6]; iv, I.V. (1 mg/kg)): 16300 ± 664 ng·h/mL
clearance ([6]; iv, I.V. (1 mg/kg)): 0.898 ± 0.04 mL/min/kg
half-life ([6]; iv, I.V. (1 mg/kg)): 7.65 ± 0.56 h
Cmax [6, 9]: 1290 ± 106 ng/mL
Vd ([6]; iv, I.V. (1 mg/kg)): 0.624 ± 0.03 L/kg
